According to ChEMBL document CHEMBL2401728, “An unexpected Dimroth rearrangement leading to annelated thieno[3,2-d][1,2,3]triazolo[1,5-a]pyrimidines with potent antitumor activity” (Eur J Med Chem, 2013):

Legend:
Format in all cases: functional
IGROV-1 [1] = assay: Cytotoxicity against human IGROV1 cells assessed as cellular growth at 0.01 uM after 48 hrs by SRB assay relative to control
Malme-3M = assay: Cytotoxicity against human MALME-3M cells assessed as cellular growth at 0.01 uM after 48 hrs by SRB assay relative to control
HCT-116 = assay: Cytotoxicity against human HCT116 cells assessed as cellular growth at 0.01 uM after 48 hrs by SRB assay relative to control
NCI-H23 = assay: Cytotoxicity against human NCI-H23 cells assessed as cellular growth at 0.01 uM after 48 hrs by SRB assay relative to control
MDA-MB-231 [2] = assay: Cytotoxicity against human MDA-MB-231 cells assessed as cellular growth at 100 uM after 48 hrs by SRB assay relative to control
SNB-19 = assay: Cytotoxicity against human SNB19 cells assessed as cellular growth at 100 uM after 48 hrs by SRB assay relative to control
KM12 = assay: Cytotoxicity against human KM12 cells assessed as cellular growth at 100 uM after 48 hrs by SRB assay relative to control
A498 = assay: Cytotoxicity against human A498 cells assessed as cellular growth at 10 uM after 48 hrs by SRB assay relative to control
SW-620 = assay: Cytotoxicity against human SW620 cells assessed as cellular growth at 10 uM after 48 hrs by SRB assay relative to control
MDA-MB-468 = assay: Cytotoxicity against human MDA-MB-468 cells assessed as cellular growth at 100 uM after 48 hrs by SRB assay relative to control
MDA-MB-231 [3] = assay: Cytotoxicity against human MDA-MB-231 cells assessed as cellular growth at 1 uM after 48 hrs by SRB assay relative to control
OVCAR-5 [4] = assay: Cytotoxicity against human OVCAR5 cells assessed as cellular growth at 1 uM after 48 hrs by SRB assay relative to control
SK-MEL-5 = assay: Cytotoxicity against human SK-MEL-5 cells assessed as cellular growth at 1 uM after 48 hrs by SRB assay relative to control
LOX IMVI = assay: Cytotoxicity against human LOXIMVI cells assessed as cellular growth at 1 uM after 48 hrs by SRB assay relative to control
NCI-H460 = assay: Cytotoxicity against human NCI-H460 cells assessed as cellular growth at 1 uM after 48 hrs by SRB assay relative to control
NCI-H322M [5] = assay: Cytotoxicity against human NCI-H322M cells assessed as cellular growth at 1 uM after 48 hrs by SRB assay relative to control
HOP-62 = assay: Cytotoxicity against human HOP62 cells assessed as cellular growth at 1 uM after 48 hrs by SRB assay relative to control
T47D [6] = assay: Cytotoxicity against human T47D cells assessed as cellular growth at 0.1 uM after 48 hrs by SRB assay relative to control
T47D [7] = assay: Cytotoxicity against human T47D cells after 48 hrs by SRB assay
MDA-MB-231 [8] = assay: Cytotoxicity against human MDA-MB-231 cells after 48 hrs by SRB assay; settings: MDA-MB-231, 48 h
SN12C = assay: Cytotoxicity against human SN12C cells after 48 hrs by SRB assay
OVCAR-5 [9] = assay: Cytotoxicity against human OVCAR5 cells after 48 hrs by SRB assay; settings: OVCAR-5, 48 h
OVCAR-4 [10] = assay: Cytotoxicity against human OVCAR4 cells after 48 hrs by SRB assay; settings: OVCAR-4, 48 h
IGROV-1 [11] = assay: Cytotoxicity against human IGROV1 cells after 48 hrs by SRB assay; settings: IGROV-1, 48 h
UACC-257 = assay: Cytotoxicity against human UACC257 cells after 48 hrs by SRB assay; settings: UACC-257, 48 h
NCI-H322M [12] = assay: Cytotoxicity against human NCI-H322M cells after 48 hrs by SRB assay
HL-60(TB) = assay: Cytotoxicity against human HL-60(TB) cells after 48 hrs by SRB assay; settings: HL-60, 48 h
OVCAR-4 [13] = assay: Cytotoxicity against human OVCAR4 cells assessed as cellular growth at 0.1 uM after 48 hrs by SRB assay relative to control
MDA-MB-435 = assay: Cytotoxicity against human MDA-MB-435 cells assessed as cellular growth at 0.1 uM after 48 hrs by SRB assay relative to control
SNB-75 = assay: Cytotoxicity against human SNB75 cells assessed as cellular growth at 0.1 uM after 48 hrs by SRB assay relative to control
COLO 205 = assay: Cytotoxicity against human COLO205 cells assessed as cellular growth at 0.1 uM after 48 hrs by SRB assay relative to control
NCI-H226 = assay: Cytotoxicity against human NCI-H226 cells assessed as cellular growth at 0.1 uM after 48 hrs by SRB assay relative to control
Hs-578T = assay: Cytotoxicity against human Hs578T cells assessed as cellular growth at 0.01 uM after 48 hrs by SRB assay relative to control
DU-145 = assay: Cytotoxicity against human DU145 cells assessed as cellular growth at 0.01 uM after 48 hrs by SRB assay relative to control
[14] = read-out: LC50 (the source's name)
[15] = read-out: pLC50 (the source's name) (converted)

SMILES: CN1CCN(CCCn2c3c(sc4ncccc43)c(=O)n3nnc(-c4ccccc4)c23)CC1
- Activity (IGROV-1 [1]): 102%
- Activity (Malme-3M): 83%
- Activity (HCT-116): 97%
- Activity (NCI-H23): 100%
- Activity (MDA-MB-231 [2]): -42%
- Activity (SNB-19): -42%
- Activity (KM12): -83%
- Activity (A498): 57%
- Activity (SW-620): -63%
- Activity (MDA-MB-468): -91%
- Activity (MDA-MB-231 [3]): 87%
- Activity (OVCAR-5 [4]): 99%
- Activity (SK-MEL-5): 93%
- Activity (LOX IMVI): 86%
- Activity (NCI-H460): 95%
- Activity (NCI-H322M [5]): 90%
- Activity (HOP-62): 97%
- Activity (T47D [6]): 100%
- GI50 (T47D [7]; read-out: GI50): 19.7 µM
- CC50 (T47D [7]; [14]): 71.6 µM
- TGI (T47D [7]; read-out: TGI): 37.6 µM
- GI50 (T47D [7]; read-out: pGI50 (converted)): 20 µM
- CC50 (T47D [7]; [15]): 70.8 µM
- TGI (T47D [7]; read-out: pTGI (converted)): 38 µM
- GI50 (MDA-MB-231 [8]; read-out: GI50): 1.7 µM
- TGI (MDA-MB-231 [8]; read-out: TGI): 3.51 µM
- GI50 (MDA-MB-231 [8]; read-out: pGI50 (converted)): 1.7 µM
- TGI (MDA-MB-231 [8]; read-out: pTGI (converted)): 3.55 µM
- GI50 (SN12C; read-out: GI50): 1.81 µM
- TGI (SN12C; read-out: TGI): 4.07 µM
- GI50 (SN12C; read-out: pGI50 (converted)): 1.82 µM
- TGI (SN12C; read-out: pTGI (converted)): 4.07 µM
- GI50 (OVCAR-5 [9]; read-out: GI50): 2.69 µM
- CC50 (OVCAR-5 [9]; [14]): > 100 µM
- TGI (OVCAR-5 [9]; read-out: TGI): 7.35 µM
- GI50 (OVCAR-5 [9]; read-out: pGI50 (converted)): 2.69 µM
- CC50 (OVCAR-5 [9]; [15]): > 100 µM
- TGI (OVCAR-5 [9]; read-out: pTGI (converted)): 7.41 µM
- GI50 (OVCAR-4 [10]; read-out: GI50): 1.87 µM
- CC50 (OVCAR-4 [10]; [14]): 8.04 µM
- TGI (OVCAR-4 [10]; read-out: TGI): 3.88 µM
- GI50 (OVCAR-4 [10]; read-out: pGI50 (converted)): 1.86 µM
- CC50 (OVCAR-4 [10]; [15]): 8.13 µM
- TGI (OVCAR-4 [10]; read-out: pTGI (converted)): 3.89 µM
- GI50 (IGROV-1 [11]; read-out: GI50): 2 µM
- CC50 (IGROV-1 [11]; [14]): 9.78 µM
- TGI (IGROV-1 [11]; read-out: TGI): 4.42 µM
- GI50 (IGROV-1 [11]; read-out: pGI50 (converted)): 2 µM
- CC50 (IGROV-1 [11]; [15]): 9.77 µM
- TGI (IGROV-1 [11]; read-out: pTGI (converted)): 4.47 µM
- GI50 (UACC-257; read-out: GI50): 1.81 µM
- CC50 (UACC-257; [14]): 6.3 µM
- TGI (UACC-257; read-out: TGI): 3.37 µM
- GI50 (UACC-257; read-out: pGI50 (converted)): 1.82 µM
- CC50 (UACC-257; [15]): 6.31 µM
- TGI (UACC-257; read-out: pTGI (converted)): 3.39 µM
- GI50 (NCI-H322M [12]; read-out: GI50): 1.74 µM
- CC50 (NCI-H322M [12]; [14]): 6.96 µM
- TGI (NCI-H322M [12]; read-out: TGI): 3.48 µM
- GI50 (NCI-H322M [12]; read-out: pGI50 (converted)): 1.74 µM
- CC50 (NCI-H322M [12]; [15]): 6.92 µM
- TGI (NCI-H322M [12]; read-out: pTGI (converted)): 3.47 µM
- GI50 (HL-60(TB); read-out: GI50): 1.86 µM
- CC50 (HL-60(TB); [14]): 9.05 µM
- TGI (HL-60(TB); read-out: TGI): 4.1 µM
- GI50 (HL-60(TB); read-out: pGI50 (converted)): 1.86 µM
- CC50 (HL-60(TB); [15]): 9.12 µM
- TGI (HL-60(TB); read-out: pTGI (converted)): 4.07 µM
- Activity (OVCAR-4 [13]): 101%
- Activity (MDA-MB-435): 99%
- Activity (SNB-75): 71%
- Activity (COLO 205): 89%
- Activity (NCI-H226): 80%
- Activity (Hs-578T): 95%
- Activity (DU-145): 97%
